Series [1] deals with Human dermal fibroblasts. Nature of the series: [35S]-sulfate incorporation (normalized to [3H]-thymidine) in micromass cultures. It is filed as cell-based. As for the experimental part:
Thus, human dermal fibroblasts were seeded in monolayer or micromass cultures at a density of 2.0×10^5 cell/ml for 24 hours and left untreated or treated with 40 mM lactate to induce hypoxia. Cultures were labeled with [^3H]-thymidine at 2 μCi/ml and Na2^35SO4 at 5 μCi/ml 24 hours prior to harvest. Relative levels of [^35S]-sulfate uptake (ratio of [^35S]-sulfate to [^3H]-thymidine) were determined by liquid scintillation counting of soluble cell extracts using a dual label DPM counting program. […] Human dermal fibroblasts were seeded in high density micromass cultures at a density of 2.0×10^5 cell/ml, treated with lactate at varying concentrations (0-80 mM) for a 24 hour period, and labeled with [^35S]-sulfate.

Series [2] relates to fibroblast micromass cultures. Briefly: Cell viability by direct microscopic observation. Format: cell-based, human. Particulars: staurosporine alone without lactate priming, at otherwise effective doses. The text has this:
Accordingly, practice of the invention includes treating the cells with the second agent so as to allow a PKA-dependent antagonistic pathway to predominate and to drive chondrogenic differentiation. Suitable chondrogenic differentiation agents include Bisindolylmaleimide I and calphostin C. PKA activators such as dibutyryl cAMP and adenylate cyclase activators (which results in cAMP production and PKA activity) like forskolin may also be effective. A preferred such agent is staurosporine (a protein kinase inhibitor to which PKC is most sensitive), preferably in a range of 150-200 nM.

For series [3], the system named is Human dermal fibroblasts. Nature of the series: Cell morphology in high density micromass cultures by microscopy. Format: cell-based. As for the experimental part:
(§1) Experiments were designed to examine the effects of functional hypoxia and high density culture conditions on the phenotype of dermal fibroblasts. Human dermal fibroblasts obtained from neonatal foreskin samples were cultured in high density micromass cultures. Briefly, a 10 μl drop of a cell solution at a concentration of 2.0×10^4-4.0×10^4 cells/μl was plated in a 24-well polystyrene tissue culture dish. The cultures were incubated for one hour at 37° C., 5% CO2 to allow the cells to adhere to the bottom of the wells and to enhance cell:cell interactions. Following incubation, the cells were flooded with 1 ml of medium (bringing the final concentration to 2.0×10^5 to 4.0×10^5 cells/ml) containing exogenous factors that promote differentiation along the chondrogenic pathway. Cultures were made functionally hypoxic by the addition of lactate (10-40 mM) to the culture medium. The cells were cultured for a period of 24 hours.
Human neonatal foreskin fibroblasts (HFFs) were cultured in high density micromasses (2.0×10^7 cells/ml in 10 μl) and treated with 40 mM lactic acid and 200 nM staurosporine for a period of 24 hours as previously described by Examples 1 and 2. […]

The test system of series [4] is Human dermal fibroblasts. Nature of the series: Northern hybridization of total cellular RNA with DIG-labeled probes. It is filed as cell-based. As for the experimental part:
Gene Expression. […] The expression of TGF-β1 was also examined in cells cultured under identical conditions. […] Human dermal fibroblasts were cultured in monolayer without or with 40 mM lactate or in micromass cultures without or with 40 mM lactate at a density of 3.0×10^5 cell/ml for 24 hours. Total cellular RNA extracted using the Ultraspec isolation system (Biotecx Laboratories, Inc., Houston, Tex.) and fractionated by formaldehyde-agarose gel electrophoresis was hybridized with DIG-labeled probes to human chondroitin sulfate proteoglycan (aggrecan) core protein and TGF-β1. An equal amount of RNA (5 μg) was loaded in each lane and 28s ribosomal RNA served as an internal control.
Human dermal fibroblasts were cultured in monolayer without or with 40 mM lactate or in micromass cultures without or with 40 mM lactate at a density of 2.0×10^5 cell/ml for 24 hours. Total cellular RNA extracted using the Ultraspec isolation system (Biotecx Laboratories, Inc., Houston, Tex.) and fractionated by formaldehyde-agarose gel electrophoresis was hybridized with a DIG-labeled probe to human type I collagen. An equal amount of RNA (5 μg) was loaded in each lane and 28s ribosomal RNA served as an internal control.
Human dermal fibroblasts were seeded in micromass cultures at a density of 2.0×10^5 cells/ml for 24 hours in the presence of 40 mM lactate and varying concentrations of the protein kinase C inhibitors, staurosporine (0, 50, 100, 150, and 200 nM in lanes 1-5, respectively). Total cellular RNA extracted using the Ultraspec isolation system (Biotecx Laboratories, Inc., Houston, Tex.) and fractionated by formaldehyde-agarose gel electrophoresis was hybridized with DIG-labeled probes to human chondroitin sulfate proteoglycan (aggrecan) core protein and type I collagen. An equal amount RNA (5 μg) was loaded in each lane and 28s ribosomal RNA served as an internal control.
(§2) The production of sulfated proteoglycans was assessed by staining with 1% Alcian blue dye (pH 1.0), while monoclonal antibodies to collagen types I (Rockland, Gilbertsville, Pa.) and II (CIICl, Developmental Studies Hybridoma Bank, Iowa City, Iowa), aggrecan (Chemicon, Temecula, Calif.), and cartilage link protein (9/30/8-A-4, DSHB) were used for immuno-histochemical detection employing the Histostain-Plus king (Zymed, South San Francisco, Calif.) with a DAB substrate for final visualization. The expression of type I collagen and transforming growth factor-β1 (TGF-β1) was detected by northern hybridization. Cell-polymer composites were analyzed by scanning electron microscopy and were embedded in glycol methacrylate, sectioned, and stained with hematoxylin and eosin.

For series [5], the system named is Human dermal fibroblasts. Particulars: 20 mM lactate; cited from earlier work.
The subject of series [6] is Human dermal fibroblasts. Briefly: Alcian blue staining of sulfated proteoglycan in monolayer or micromass cultures. Particulars: high density micromass, 40 mM lactate, 24 hours, vs untreated and monolayer cultures, P<0.05. It is filed as cell-based. As for the experimental part: as §1
Matrix Deposition. Treated micromass cultures synthesized highly negatively charged sulfated proteoglycan aggregates, as detected using histological and biochemical methods. […] The intensity of Alcian blue staining from guanidine-HCl extracts was measured using a microplate reader at a wavelength of 595 nm.
The expression of type I collagen and transforming growth factor-β1 (TGF-β1) was detected by northern hybridization.

Series [7] concerns Human neonatal foreskin fibroblasts (HFFs). Nature of the series: Immunohistochemical detection of matrix proteins in micromass cultures. It is filed as cell-based. As for the experimental part:
Human neonatal foreskin fibroblasts (HFFs) were cultured in high density micromasses (2.0×10^7 cells/ml in 10 μl) and treated with 40 mM lactic acid and 200 nM staurosporine for a period of 24 hours as previously described by Examples 1 and 2. After the initial culture period, the cells were maintained in chemically defined medium consisting of minimum essential medium supplemented with a 1× mixture of Insulin-Transferrin-Selenium (Life Technologies, Gibco BRL, Gaithersburg, Md.), 4.5 g/l glucose, 10 mM β-glycerophosphate, and antibiotics. Dermal fibroblasts isolated from donor tissue were similarly cultured. Additionally, dermal fibroblasts were seeded on three-dimensional polymer scaffolds composed of a non-woven polyglycolic acid (PGA) (Davis and Geck, Danbury, Conn.) mesh reinforced in a dilute solution of 100 kDa poly(L-lactic acid) (PLLA) (Polysciences, Warrington, Pa.).
as §2

Setting [8] is: micromass 2.0×10^5 cell/ml, lactate 0-80 mM, 24 hours.
Setting [9] is: whole mount micromass cultures, after three days.
Where [10] appears, read: micromass 3.0×10^5 cell/ml, 40 mM lactate, 24 hours, vs untreated and monolayer.

Take `CN[C@@H]1C[C@H]2O[C@@](C)([C@@H]1OC)n1c3ccccc3c3c4c(c5c6ccccc6n2c5c31)C(=O)NC4` [staurosporine]: the sulfate incorporation entry in the series on Human dermal fibroblasts [1] (staurosporine alone without lactate priming, at otherwise effective doses) was “decreased levels”. In series [2], the cell viability entry was “deleterious effect”. Also, in the series with Human dermal fibroblasts [3] (staurosporine about 5-20 nM), the “visible effect in lactate-treated micromass cultures” value is given as “no visible effect”. In addition, the “aggrecan core protein gene expression” value with Human dermal fibroblasts [4] (micromass, 40 mM lactate plus 150 nM staurosporine, 24 hours) is on record as “notable increase”; in the series with Human dermal fibroblasts [4] (micromass, 40 mM lactate plus 200 nM staurosporine, 24 hours) it was “notable increase”. For the same compound, the “type I collagen gene expression” value with Human dermal fibroblasts [4] (micromass, 40 mM lactate plus staurosporine 50-200 nM (all supplemented cultures), 24 hours) is on record as “marked decrease”.
For the compound `CC(O)C(=O)O` (centres unmarked) [lactate], in the series with Human dermal fibroblasts [5], the hyaluronan synthesis entry is given as “increased”. Further, the “intensity of Alcian blue staining (sulfated proteoglycan content), 595 nm” value in the series with Human dermal fibroblasts [6] is given as “significantly greater degree of staining”. For the same compound, the “relative [35S]-sulfate incorporation (ratio to [3H]-thymidine)” value in the series on Human dermal fibroblasts [1] (high density micromass, 40 mM lactate, 24 hours, vs corresponding cultures, P<0.05) is reported as “Significantly greater levels”. Also, in the series on Human dermal fibroblasts [1] (setting [8]), the “lactate concentration at which sulfate uptake peaks” value was in the range of 20 to 40 mM and the “sulfate uptake versus lactate concentration” value was “dose-dependent increase”. Besides, in series [7] (micromass cultures), the “type I collagen immunostaining” value is “only on the periphery”. Further, in series [7] (setting [9]), the aggrecan immunostaining entry was “Minimal staining” and the “cartilage link protein immunostaining” value is reported as “Minimal staining”. In the series on Human dermal fibroblasts [3] (40 mM lactate as compared to 20 mM lactate), the “fibroblast outgrowth from the micromass cultures” value was “less fibroblast outgrowth”. For the same compound, the TGF-β1 expression levels entry in the series on Human dermal fibroblasts [4] (HFFs on PGA/PLLA discs, all groups) was “remained similar in all groups”. Besides, in the series with Human dermal fibroblasts [4] (HFFs on PGA/PLLA discs, treated vs untreated control), the “expression of type I collagen” value is listed as “greater in untreated control cultures”. Also, the “type I collagen gene expression” value in the series with Human dermal fibroblasts [4] (micromass 2.0×10^5 cell/ml, 40 mM lactate, 24 hours) was “noticeable decrease”. Besides, in the series with Human dermal fibroblasts [4] (setting [10]), the TGF-β1 gene expression result is “marked increase” and the “aggrecan core protein gene expression” value is listed as “marked increase”.
